For data set [1], the system named is NCI-H1975. Put plainly: Antiproliferative activity against human NCI-H1975 cells assessed as reduction in cell viability incubated for 72 hrs by SRB assay. It counts as functional, cell-based. The following applies: NCI-H1975, 72 h.
The test system of data set [2] is NCI-H1975. Put plainly: Antitumor activity against human NCI-H1975 cells xenografted in athymic nude BALB/c mouse assessed as tumor growth inhibition at 1 mg/kg, ip administered for 4 weeks relative to control. It counts as functional. The settings on record: 672 h, read-out: TGI. For orientation: A xenograft is tissue or cells of one species grown in another, often human tumour cells in immunodeficient mice.

In data set [3] the test system is NCI-H1975. In words: Induction of apoptosis in human NCI-H1975 cells assessed as increase in cleaved caspase 3 level at 140 nM incubated upto 72 hrs by immunoblotting analysis. It counts as functional, cell-based. On the technique in general: In western blotting, separated proteins are transferred to a membrane and probed.
The subject of data set [4] is NCI-H1975. Put plainly: Antiproliferative activity against human NCI-H1975 cells knock out SiRNA MCM2 assessed as reduction in cell viability incubated for 72 hrs by SRB assay relative to control. It counts as functional. Background: Sulforhodamine B stains cellular protein and so reports cell mass.
For data set [5], the target named is DNA replication licensing factor MCM7 (Homo sapiens) (UniProt P33993). Put plainly: Induction of ubiquitination of MCM7 in human NCI-H1975 cells incubated for 24 hrs by immunoblot analysis. It counts as cell-based.
Data set [6] has as its target DNA replication licensing factor MCM2 (Homo sapiens) (UniProt P49736). Put plainly: Induction of ubiquitination of MCM2 in human PC9 cells incubated for 24 hrs by immunoblot analysis. It counts as cell-based. The settings on record: PC-9.
The target of data set [7] is T1, DNA replication licensing factor MCM6 (Homo sapiens) (UniProt Q14566).
T1 sequence (whole entry): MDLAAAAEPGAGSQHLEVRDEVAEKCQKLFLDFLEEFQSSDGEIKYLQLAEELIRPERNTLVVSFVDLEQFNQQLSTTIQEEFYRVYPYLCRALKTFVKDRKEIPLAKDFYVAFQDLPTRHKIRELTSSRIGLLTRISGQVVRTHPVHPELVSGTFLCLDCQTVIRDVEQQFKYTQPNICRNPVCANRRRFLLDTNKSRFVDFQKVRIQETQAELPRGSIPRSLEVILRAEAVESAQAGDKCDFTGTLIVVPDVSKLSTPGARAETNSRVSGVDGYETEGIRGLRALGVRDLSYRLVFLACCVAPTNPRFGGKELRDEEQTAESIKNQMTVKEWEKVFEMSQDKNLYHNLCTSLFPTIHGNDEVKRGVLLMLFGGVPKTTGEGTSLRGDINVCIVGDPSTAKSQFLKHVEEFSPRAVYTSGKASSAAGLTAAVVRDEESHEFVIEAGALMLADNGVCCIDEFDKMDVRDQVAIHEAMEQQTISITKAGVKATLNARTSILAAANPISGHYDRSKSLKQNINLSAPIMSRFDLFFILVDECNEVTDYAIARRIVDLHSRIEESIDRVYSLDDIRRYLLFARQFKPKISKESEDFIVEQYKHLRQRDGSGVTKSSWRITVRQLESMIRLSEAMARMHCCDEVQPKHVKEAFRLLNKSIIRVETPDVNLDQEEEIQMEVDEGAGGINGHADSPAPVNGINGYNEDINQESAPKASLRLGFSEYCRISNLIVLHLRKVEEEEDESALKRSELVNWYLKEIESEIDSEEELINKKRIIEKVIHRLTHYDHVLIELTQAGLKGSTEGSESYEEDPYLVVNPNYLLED
In words: Induction of ubiquitination of MCM6 in human PC9 cells incubated for 24 hrs by immunoblot analysis. The settings on record: PC-9. It counts as cell-based.

The target in data set [8] is DNA replication licensing factor MCM7 (Homo sapiens) (UniProt P33993). Put plainly: Induction of ubiquitination of MCM7 in human PC9 cells incubated for 24 hrs by immunoblot analysis. The following applies: PC-9. It counts as cell-based.
Data set [9] shares this target. Put plainly: Induction of ubiquitination of MCM7 in human NCI-H1975 cells incubated for 24 hrs by immunoblot analysis (reference value: 1). In kind it is cell-based.
Data set [10] deals with T2, DNA replication licensing factor MCM4 (Homo sapiens) (UniProt P33991).
T2 sequence (whole entry): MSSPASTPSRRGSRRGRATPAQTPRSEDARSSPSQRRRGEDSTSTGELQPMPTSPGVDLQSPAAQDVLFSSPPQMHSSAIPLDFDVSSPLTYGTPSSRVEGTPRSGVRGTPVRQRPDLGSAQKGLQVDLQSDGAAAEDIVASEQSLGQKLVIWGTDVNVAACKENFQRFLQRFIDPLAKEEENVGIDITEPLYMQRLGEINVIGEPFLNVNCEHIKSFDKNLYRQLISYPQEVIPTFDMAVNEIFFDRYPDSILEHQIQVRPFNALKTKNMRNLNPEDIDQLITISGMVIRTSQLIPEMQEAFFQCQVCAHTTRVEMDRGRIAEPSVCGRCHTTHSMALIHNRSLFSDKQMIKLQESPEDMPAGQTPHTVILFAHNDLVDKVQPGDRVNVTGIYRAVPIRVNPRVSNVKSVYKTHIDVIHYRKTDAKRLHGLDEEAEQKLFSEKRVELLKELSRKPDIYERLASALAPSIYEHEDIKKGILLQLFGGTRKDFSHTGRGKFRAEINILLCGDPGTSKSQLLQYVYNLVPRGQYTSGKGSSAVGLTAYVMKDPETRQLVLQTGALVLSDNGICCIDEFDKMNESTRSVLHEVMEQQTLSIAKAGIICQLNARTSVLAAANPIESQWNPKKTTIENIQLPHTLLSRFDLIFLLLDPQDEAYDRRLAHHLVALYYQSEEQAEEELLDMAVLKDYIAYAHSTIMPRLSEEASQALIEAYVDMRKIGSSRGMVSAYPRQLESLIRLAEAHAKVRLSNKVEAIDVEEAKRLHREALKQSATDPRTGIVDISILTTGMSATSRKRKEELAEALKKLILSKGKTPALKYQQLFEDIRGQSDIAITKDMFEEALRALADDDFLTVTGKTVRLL
In words: Induction of ubiquitination of MCM4 in human NCI-H1975 cells incubated for 72 hrs by immunoblot analysis (reference value: 1). In kind it is cell-based.

The target of data set [11] is DNA replication licensing factor MCM2 (Homo sapiens) (UniProt P49736). Put plainly: Induction of ubiquitination of FLAG-tagged MCM2 in human NCI-H1975 cells incubated for 24 hrs by magnetic beads technique based immunoblot analysis. It counts as cell-based.
The nature of data set [12]: Selectivity index, ratio of IC50 for human bronchial epithelial cells to IC50 for human PC9IR cells. In kind it is toxicity. The settings on record: human bronchial epithelial cells versus PC9IR cells, read-out: Ratio IC50.

Each structure is given as a SMILES string. The source made the active and inactive calls. No cut-off for these calls is given here. A value given as a limit tells only on which side of the number the result lay.

Sequence of DNA replication licensing factor MCM7 (Homo sapiens) (P33993 whole entry): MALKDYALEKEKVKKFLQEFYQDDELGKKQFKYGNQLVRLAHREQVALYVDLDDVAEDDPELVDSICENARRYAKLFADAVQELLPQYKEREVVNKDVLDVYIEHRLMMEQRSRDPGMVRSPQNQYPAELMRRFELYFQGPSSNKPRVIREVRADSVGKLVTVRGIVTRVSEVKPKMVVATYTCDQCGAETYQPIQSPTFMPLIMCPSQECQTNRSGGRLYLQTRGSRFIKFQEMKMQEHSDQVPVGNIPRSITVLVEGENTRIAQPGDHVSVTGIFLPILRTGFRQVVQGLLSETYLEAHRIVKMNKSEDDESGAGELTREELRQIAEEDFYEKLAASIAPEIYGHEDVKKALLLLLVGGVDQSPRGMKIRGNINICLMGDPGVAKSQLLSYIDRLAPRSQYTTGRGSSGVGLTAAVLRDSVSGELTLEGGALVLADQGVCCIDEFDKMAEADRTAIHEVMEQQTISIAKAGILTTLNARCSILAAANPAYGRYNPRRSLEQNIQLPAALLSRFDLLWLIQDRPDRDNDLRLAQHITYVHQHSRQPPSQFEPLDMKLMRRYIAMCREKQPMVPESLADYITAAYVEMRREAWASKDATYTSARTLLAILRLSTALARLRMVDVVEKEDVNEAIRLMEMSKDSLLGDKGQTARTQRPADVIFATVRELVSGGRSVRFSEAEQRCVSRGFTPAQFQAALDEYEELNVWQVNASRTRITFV
Sequence of DNA replication licensing factor MCM2 (Homo sapiens) (P49736 whole entry): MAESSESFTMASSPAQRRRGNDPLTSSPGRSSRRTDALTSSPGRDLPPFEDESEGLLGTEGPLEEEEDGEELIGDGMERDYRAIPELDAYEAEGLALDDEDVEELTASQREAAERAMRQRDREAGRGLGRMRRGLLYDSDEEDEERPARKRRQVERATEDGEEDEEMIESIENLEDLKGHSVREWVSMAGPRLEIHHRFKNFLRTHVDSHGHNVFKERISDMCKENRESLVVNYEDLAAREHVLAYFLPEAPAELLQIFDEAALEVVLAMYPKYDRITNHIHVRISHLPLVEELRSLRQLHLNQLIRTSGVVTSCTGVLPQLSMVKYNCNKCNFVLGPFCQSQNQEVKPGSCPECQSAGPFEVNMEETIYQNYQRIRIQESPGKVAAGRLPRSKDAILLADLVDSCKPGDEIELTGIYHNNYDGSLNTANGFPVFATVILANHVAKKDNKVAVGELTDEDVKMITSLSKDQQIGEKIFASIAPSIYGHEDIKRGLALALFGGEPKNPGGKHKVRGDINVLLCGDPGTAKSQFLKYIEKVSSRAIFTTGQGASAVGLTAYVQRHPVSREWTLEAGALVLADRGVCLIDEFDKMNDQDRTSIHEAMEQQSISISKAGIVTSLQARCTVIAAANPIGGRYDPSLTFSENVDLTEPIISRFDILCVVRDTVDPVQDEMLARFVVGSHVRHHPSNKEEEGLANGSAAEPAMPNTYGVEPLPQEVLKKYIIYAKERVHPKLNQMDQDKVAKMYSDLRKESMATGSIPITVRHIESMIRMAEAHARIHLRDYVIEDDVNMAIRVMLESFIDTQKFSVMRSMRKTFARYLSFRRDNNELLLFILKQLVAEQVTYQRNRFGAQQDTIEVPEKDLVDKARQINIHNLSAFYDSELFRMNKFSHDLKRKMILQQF

Consider `Cc1oc2c(c1C(=O)NCCCn1ccnc1)C(=O)c1ccccc1C2=O`, for which, in the data set with NCI-H1975 [1], the half-maximal inhibitory concentration (IC50) (commonly the concentration that inhibits the measured activity by half) turned out to be 77 nM. Moreover, the inhibition in vivo at 1 mg/kg in the data set on NCI-H1975 [2] is 44%. Also, the outcome (with NCI-H1975 [3]; in data set [6]; in data set [7]; in data set [8]; in data set [11]) was Active. In the data set with NCI-H1975 [4], the “inhibition (INH)” value came to 33%. Besides, the Activity entry in data set [5] is “Dose-dependent effect”; in data set [9], 0.8; in data set [10], 0.7. Besides, the selectivity ratio in data set [12] is over 10.

(Values after ChEMBL document CHEMBL4602694, “Suppression of Drug-Resistant Non-Small-Cell Lung Cancer with Inhibitors Targeting Minichromosomal Maintenance Protein” (J Med Chem, 2020).)
